In US7097860B2, “Method and composition for treatment of inflammatory and inflammation-related disorders” (priority 2001, dated 2006):

What was measured:
monkeys = monkeys from six months old, double the normal dose; cited from earlier work
inflammatory disorders = test: Magnesium sulfate in distilled water by intraperitoneal injection in a cow; assay type: in vivo; details: approximately 40 grams, cow of 500 kg
From the text: After several years of using magnesium salts, the dose was reduced to an average dose of 3–20 grams for a 500 kg cow to get the same therapeutic effect. Therefore, the intraperitoneal administration, compared to other methods of drug administration, is a safe method because it avoids the toxic side effects through first-pass hepatic metabolism which permits the organism to create the abundance of magnesium used for recovery and healing. In fact, the administered dose can be higher than the traditional toxic level doses.

cow = test: Solution / magnesium in complicated cases with intoxication; assay type: in vivo
Experimental: For example, during calving of weak and strong contractions of the uterus, atony of the rumen, reticulum and abamasum, colic and constipation. In fact, after administration of the solution, the effect can be seen even in complicated cases when intoxication takes place, the temperature of the body is increased, and there is loss of appetite. In this situation, the cow starts to ruminate and the general condition improves in 10 to 15 minutes after administration of the solution.

rats [1] = details: up to 600 mg/kg IV, single dose; cited from earlier work
rabbits = details: reproduction studies in rabbits; cited from earlier work
[2] = test system: parturient paresis in cows (milk fever), ketosis (acetonomia), and paraplegia gravidarum; test: Methenamine along with magnesium salts in parturient paresis, ketosis and paraplegia gravidarum; assay type: in vivo
From the text: Methenamine breaks down to formaldehyde and ammonia in areas of inflammation where formaldehyde acts as anti-inflammatory and bactericidal agent. Methenamine also increases membrane permeability, which helps to eliminate antibacterial toxic material from the body. […] After the fifteen minutes of administration, the condition of cows that had parturient paresis (milk fever), ketosis (acetonomia) started to improve and the cows began rumination again.

rats [3] = details: reproduction studies in rats; cited from earlier work
[4] = powder; cited from earlier work
Dogs = details: up to 600 mg/kg IV, single dose; cited from earlier work
[5] = after administration of magnesium

**Q.** For `C1N2CN3CN1CN(C2)C3` [Methenamine hippurate], which adverse effects (monkeys) is on record?
**A.** The adverse effects was “without adverse effects”.

**Q.** For `O.O.O.O.O.O.O.O=S(=O)([O-])[O-].[Mg+2]` [magnesium sulfate, magnesium sulfate (MgSO4×7H2O)], which side effects (inflammatory disorders) is on record?
**A.** Its side effects is “without any side effects”.

**Q.** What about the treatment outcome (inflammatory disorders) of the same molecule?
**A.** Its treatment outcome is “successful treatment”.

**Q.** Which “day of complete recovery” value (cow; [5]) does the source give for `[Mg+2]` [magnesium] here?
**A.** The value was “seventh”.

**Q.** What about the “day on which the general condition improved” value (cow; [5]) of the same molecule?
**A.** The value was “third”.

**Q.** And the “day of estrus after administration” value (cow; cows that previously did not have estrus)?
**A.** Its value is “seventh”.

**Q.** For `C1N2CN3CN1CN(C2)C3` [methenamine, methenamine (hexamethylenetetramine, C6H12N4)], which toxic effects (rats [1]) is on record?
**A.** The toxic effects was “without evidence of toxic effects”.

**Q.** And the “harm to the fetus” value (rabbits)?
**A.** The value was “have not revealed evidence of harm to the fetus”.

**Q.** And the treatment outcome ([2]; 20 grams per 500 kg, along with magnesium salts, other therapies unsuccessful)?
**A.** The treatment outcome was “successful treatment”.

**Q.** And the “time after administration at which condition started to improve and rumination began” value ([2]; parturient paresis (milk fever), ketosis (acetonomia))?
**A.** The value was “fifteen”.

**Q.** What about the “harm to the fetus” value (rats [3]) of the same molecule?
**A.** Its value is “have not revealed evidence of harm to the fetus”.

**Q.** What about the solubility in water [4] of the same molecule?
**A.** The solubility in water was “very soluble in water”.

**Q.** What about the toxic effects (Dogs) of the same molecule?
**A.** The toxic effects was “without evidence of toxic effects”.
